What was measured:
GST-Bcl-2 protein = GST-Bcl-2 protein (Homo sapiens, UniProt P10415); assay: Fluorescence polarization assay, competition with FAM-Bid peptide for Bcl-2; settings: GST-Bcl-2 40 nM, FAM-Bid 5 nM, 4 hours of incubation, read-out: Bcl-2 binding constants
Experimental: (§1) A Bid BH3 peptide (amino acids: 79-99: […]) having 21 amino acids was synthesized and marked with 6-carboxyfluorescein N-succinimidyl ester (FAM) as fluorescent tag (FAM-Bid) at the N-terminal. The reaction system used in the competitive binding experiment was GST-Bcl-2 protein (40 nM) or Mcl-1 protein, which was dissolved in the reaction buffer (100 mM K3PO4, pH 7.5; 100 μg/ml bovine γ albumin; 0.02% sodium azide) together with FAM-Bid polypeptide (5 nM). In a 96-well plate, 100 µL of the reaction system was added into each well. Then 1 μL different concentration of compound 13 mother solution to be detected dissolved in DMSO was added there into until the final concentration met the experimental design requirements. Meanwhile, two control groups were established, one with the reaction system only containing Bcl-2 or Mcl-1 and FAM-Bid (equivalent to 0% inhibition rate), the other with the reaction system only containing FAM-Bid peptide. After 4 hours of incubation, the 96-well plate was detected by enzyme-labelled meter. The fluorescent polarization value (mP) was tested at […]. Ki value was deduced according to calculation formula.
(§2) The BH3 analogous degrees of other 12 compounds were detected by using the experimental method as described above.

Mcl-1 protein = Mcl-1 protein (Homo sapiens, UniProt Q07820); assay: Fluorescence polarization assay, competition with FAM-Bid peptide for Mcl-1; settings: FAM-Bid 5 nM, 4 hours of incubation, read-out: Mcl-1 binding constants
Sequence of Mcl-1 protein (Q07820 whole entry, species assumed): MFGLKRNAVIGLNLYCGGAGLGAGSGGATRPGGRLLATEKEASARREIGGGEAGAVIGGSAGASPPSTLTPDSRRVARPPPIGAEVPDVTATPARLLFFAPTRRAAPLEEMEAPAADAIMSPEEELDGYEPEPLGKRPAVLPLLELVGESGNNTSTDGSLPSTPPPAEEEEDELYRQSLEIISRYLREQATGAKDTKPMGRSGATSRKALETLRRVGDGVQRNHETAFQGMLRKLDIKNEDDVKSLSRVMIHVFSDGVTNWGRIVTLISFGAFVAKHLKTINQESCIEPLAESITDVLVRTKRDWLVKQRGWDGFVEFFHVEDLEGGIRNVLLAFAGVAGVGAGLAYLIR
Experimental: as §1, §2

[1] = target: T1, interaction between Bcl-2 and Bax (Homo sapiens, UniProt P10415); assay: Intracellular FRET, Bcl-2-CFP/Bax-YFP in Hela cells; assay type: cell-based; settings: for Time (time period after which the interaction between Bcl-2 and Bax was interfered): at the concentration given
T1 construct: expressed in transfected cells; host or cells: Hela cells
T1 sequence (P10415 whole entry): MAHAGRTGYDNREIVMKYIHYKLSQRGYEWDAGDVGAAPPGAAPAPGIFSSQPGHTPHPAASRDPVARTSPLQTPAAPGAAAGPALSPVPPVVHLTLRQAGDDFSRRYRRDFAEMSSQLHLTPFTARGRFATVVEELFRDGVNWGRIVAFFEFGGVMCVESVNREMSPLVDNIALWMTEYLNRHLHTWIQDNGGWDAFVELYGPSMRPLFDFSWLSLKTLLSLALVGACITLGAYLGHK
Summary of the method: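 Hela cells transfected with Bcl-2-CFP and/or Bax-YFP plasmids, then treated with compound in DMSO at 2, 5, 10 and 15 μM for 24 h, or at 40 μM for 3, 6 and 24 h. FRET taken as the 527/475 nm emission ratio at 433 nm excitation, with singly transfected controls set to 1.0. Viability checked by MTT.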

[2] = test system: BAX shift towards the chondriosome; assay: Co-localization between Bax protein and chondriosome, Bax-YFP in MCF-7 cells; assay type: cell-based; settings: for Doses (concentration at which the compound drove the BAX to shift towards the chondriosome): Bax-YFP/Mito Tracker Red; for Time (time period after which BAX shifted towards the chondriosome): at the concentration given
Summary of the method: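 MCF-7 cells transfected with Bax-YFP plasmid; 24 h later treated with 10 μM compound for 6 h, then stained 10 min with 50 nM MitoTracker Red CMXRos. Dual-channel laser confocal imaging; Bax mitochondrial localization read as green/red overlap (orange).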

MCF-7 cells = assay: Cytotoxicity by MTT, cells without plasmid transfection; assay type: cell-based; settings: Homo sapiens, MCF7; MCF-7, MTT, 48 hours; read-out: IC50 value in untransfected cells
Summary of the method: (§3)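 MCF-7 cells transfected with 3 μg BAX/BAK interfering plasmid by calcium phosphate, knockdown checked by Western; untransfected cells run in parallel. Cells treated with a compound concentration gradient for 48 hours; viability by MTT, IC50 derived.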

[3] = test system: MCF-7 cells transfected with BAX/BAK interfering plasmid; assay: Cytotoxicity by MTT, cells transfected with BAX/BAK interfering plasmid; assay type: cell-based; settings: Homo sapiens, MCF7; MCF-7 with BAX/BAK interfering plasmid, MTT, 48 hours
Summary of the method: as §3

Bcl-2 = assay: Western blotting, semiquantitative analysis of Bcl-2 protein bands; assay type: cell-based; settings: control = 1, tumor cells
Experimental: (§4) The interest protein was detected by the corresponding antibody. The expression of the interest protein in the cells was detected by horseradish peroxidase-labeled secondary antibodies in combination with ECL coloration method. […] The concentration of the protein bands in the Western images were carried out semiquantitative analysis and normalization treatment with KODAK Gel Logic 1500 imaging system software.

Mcl-1 = assay: Western blotting, semiquantitative analysis of Mcl-1 protein bands; assay type: cell-based; settings: control = 1, tumor cells
Experimental: as §4

Sequence of GST-Bcl-2 protein (P10415 whole entry): as above

| SMILES | Ki (GST-Bcl-2 protein) [nM] | Ki (Mcl-1 protein) [nM] | Doses (concentration at which the compound interfered with the interaction between Bcl-2 and Bax) [1] [µM] | Time (time period after which the interaction between Bcl-2 and Bax was interfered) [1] [h] | Doses (concentration at which the compound drove the BAX to shift towards the chondriosome) [2] [µM] | Time (time period after which BAX shifted towards the chondriosome) [2] [h] | IC50 (MCF-7 cells) [nM] | IC50 [3] [nM] | concentration of the protein bands (semiquantitative, normalized), Bcl-2 (Bcl-2; 6 h) | concentration of the protein bands (semiquantitative, normalized), Bcl-2 (Bcl-2; 12 h) | concentration of the protein bands (semiquantitative, normalized), Bcl-2 (Bcl-2; 18 h) | concentration of the protein bands (semiquantitative, normalized), Bcl-2 (Bcl-2; 24 h) | concentration of the protein bands (semiquantitative, normalized), Mcl-1 (Mcl-1; 2 h) | concentration of the protein bands (semiquantitative, normalized), Mcl-1 (Mcl-1; 6 h) | melting point [°C] |
| --- | --- | --- | --- | --- | --- | --- | --- | --- | --- | --- | --- | --- | --- | --- | --- |
| CCC(C)c1ccc(Oc2ccc3c4c(cccc24)C2=NC(=O)C(C#N)=C23)cc1 (stereo not shown) [Compound 13, 3-(4-sec-Butyl-phenoxy)-8-oxo-8H-acenaphtho[1,2-b]pyrrole-9-carbonitrile] | 158 | 24 | 0.5 | 4 | 5.0 | 4 | 7500 | > 50000 | 0.99 | 0.99 | 0.42 | 0.14 | 0.79 | 0.29 | 278 to 279 |
| CC(C)c1ccc(Sc2ccc3cccc4c3c2C2=NC(=O)C(C#N)=C24)cc1 [Compound 22, 6-(4-Isopropyl-phenylsulfanyl)-8-oxo-8H-acenaphtho[1,2-b]pyrrole-9-carbonitrile] | 9 | 85 | 0.5 | 2 | 5.0 | 3 | 1200 | > 50000 | 0.99 | 0.99 | 0.60 | 0.37 | 0.68 | 0.49 | – |
| CC(C)Cc1ccc(Sc2ccc3c4c(cccc24)C2=NC(=O)C(C#N)=C23)cc1 [Compound 18, 3-(4-Isobutyl-phenylsulfanyl)-8-oxo-8H-acenaphtho[1,2-b]pyrrole-9-carbonitrile] | 120 | 8 | 0.5 | 4 | 5.0 | 4 | 6800 | > 50000 | 0.99 | 0.99 | 0.36 | 0.10 | 0.66 | 0.39 | – |
| CC(C)Cc1ccc(Oc2ccc3c4c(cccc24)C2=NC(=O)C(C#N)=C23)cc1 [Compound 15, 3-(4-Isobutyl-phenoxy)-8-oxo-8H-acenaphtho[1,2-b]pyrrole-9-carbonitrile] | 140 | 12 | 0.5 | 4 | 5.0 | 3 | 7100 | > 50000 | 0.99 | 0.99 | 0.39 | 0.12 | 0.69 | 0.42 | – |
| CCC(C)c1ccc(Sc2ccc3c4c(cccc24)C2=NC(=O)C(C#N)=C23)cc1 (stereo not shown) [Compound 21, 3-(4-sec-Butyl-phenylsulfanyl)-8-oxo-8H-acenaphtho[1,2-b]pyrrole-9-carbonitrile] | 12 | 65 | 0.2 | 2 | 2.0 | 2 | 1500 | > 50000 | 0.99 | 0.99 | 0.49 | 0.18 | 0.59 | 0.28 | – |
| CC(C)c1ccc(Oc2ccc3c4c(cccc24)C2=NC(=O)C(C#N)=C23)cc1 [Compound 17, 3-(4-Isopropyl-phenoxy)-8-oxo-8H-acenaphtho[1,2-b]pyrrole-9-carbonitrile] | 20 | 85 | 0.1 | 2 | 1.0 | 1 | 2000 | > 50000 | 0.99 | 0.99 | 0.58 | 0.11 | 0.65 | 0.37 | – |

Reference: patent US8614333B2, “Acenaphtho heterocyclic compound and application thereof” (Dalian University of Technology, priority 2010, dated 2013)
